This test relates to HT29 xenograft, nude mice, s.c., tumor weight T/C%. As to the kind of experiment: NCI In Vivo Anticancer Drug Screen. Data for tumor model HT29;CX-1 Human Adenocarcinoma (MER+) (subcutaneous) in NU/NU Swiss (nude) mice. As to conditions: endpoint: optimum tumor weight change, higher = larger tumour. The method, then:
The antitumor activity of compounds was measured in mice bearing transplantable tumors. Survival or tumor size were measured and the results are expressed as the measurement made in the treated group (T) divided by the measurement made in the vehicle treated control group (C). The tumor model used in this assay is HT29;CX-1 Human Adenocarcinoma (MER+) (subcutaneous) in NU/NU Swiss (nude) mice

[1] abbreviates: dose: 25.0 mg/kg/injection, schedule: Q04DX003 (ip), vehicle: Klucel (hydroxypropylcellulose) (HPC).
Setting [2] is: dose: 50.0 mg/kg/injection, schedule: Q04DX003 (ip), vehicle: Klucel (hydroxypropylcellulose) (HPC).
Where [3] appears, read: dose: 100.0 mg/kg/injection, schedule: Q04DX003 (ip), vehicle: Klucel (hydroxypropylcellulose) (HPC).
Where [4] appears, read: dose: 50.0 mg/kg/injection, schedule: Q04DX003 (ip), vehicle: saline.
[5] abbreviates: dose: 100.0 mg/kg/injection, schedule: Q04DX003 (ip), vehicle: saline.
Where [6] appears, read: dose: 200.0 mg/kg/injection, schedule: Q04DX003 (ip), vehicle: suspension in saline.
Where [7] appears, read: dose: 400.0 mg/kg/injection, schedule: Q04DX003 (ip), vehicle: suspension in saline.
The mark [8] stands for this setting: dose: 100.0 mg/kg/injection, schedule: Q04DX003 (ip), vehicle: suspension in saline.
Setting [9] is: dose: 800.0 mg/kg/injection, schedule: Q04DX003 (ip), vehicle: suspension in saline.
Where [10] appears, read: dose: 200.0 mg/kg/injection, schedule: Q04DX003 (ip), vehicle: saline.

Consider 24 molecules from PubChem BioAssay AID202 (DTP/NCI, 2004).

Each structure is given as a SMILES string. Several values for one entry are separate records, joined by “and”; a condition that tells them apart may be missing. Equal entries are not always repeated.

In the case of `CCOC(=O)Nc1cc2c(c(N)n1)N=C(CN(C)c1ccccc1)CN2`, the T/C reads like this: (dose: 12.5 mg/kg/injection, schedule: Q04DX003 (ip), vehicle: Klucel (hydroxypropylcellulose) (HPC)) 74 % of control; under setting [1], 116 % of control; under setting [2], 71 % of control; under setting [3], 90 % of control.

`CC1OC(OC2CC(O)(C(=O)CO)Cc3c(O)c4c(c(O)c32)C(=O)c2ccccc2C4=O)CC(N)C1O` (configuration not stated): the T/C (dose: 0.25 mg/kg/injection, schedule: Q04DX003 (ip), vehicle: water) is 89 % of control.

On to `CNC(=O)ON(C(C)=O)C(=O)NC`, for which the T/C was 52 % of control (dose: 25.0 mg/kg/injection, schedule: Q04DX003 (ip), vehicle: saline); 59 % of control under setting [4]; 98 % of control under setting [5].

Turning to `CS(=O)(=O)OCCN(CCOS(C)(=O)=O)c1ccc(C=Nc2ccc(-c3csc(COc4ccccc4)n3)cc2)cc1`, the T/C by setting is: under setting [3], 71 % of control; (dose: 200.0 mg/kg/injection, schedule: Q04DX003 (ip), vehicle: Klucel (hydroxypropylcellulose) (HPC)) 70 % of control.

With `O=C1N[C@@H]([C@H]2CC[C@H](Cl)CN2)C(=O)N[C@H]1[C@H]1CC[C@H](Cl)CN1`, the T/C was 53 % of control (dose: 0.31 mg/kg/injection, schedule: Q01DX001 (ip), vehicle: water); 64 % of control (dose: 0.63 mg/kg/injection, schedule: Q01DX001 (ip), vehicle: water); 79 % of control (dose: 1.25 mg/kg/injection, schedule: Q01DX001 (ip), vehicle: water).

Consider `COc1cc2c[n+](C)c3c4cc5c(cc4ccc3c2cc1OC)OCO5`, for which the T/C runs as follows: (dose: 20.0 mg/kg/injection, schedule: Q04DX003 (ip), vehicle: saline with Tween-80) 111 % of control; (dose: 40.0 mg/kg/injection, schedule: Q04DX003 (ip), vehicle: saline with Tween-80) 124 % of control; (dose: 80.0 mg/kg/injection, schedule: Q04DX003 (ip), vehicle: saline with Tween-80) 50 % of control.

Consider `CC(C)CCCCCCCCCCCCC(=O)NCC(=O)NC1C(C)OC(Nc2ncnc3nc[nH]c23)C(O)C1O` (configuration not stated), for which the T/C (dose: 3.13 mg/kg/injection, schedule: Q04DX003 (ip), vehicle: distilled water + Tween-80) is 88 % of control; the T/C (dose: 3.13 mg/kg/injection, schedule: Q04DX003 (ip), vehicle: saline with Tween-80) is 58 % of control; the T/C (dose: 6.25 mg/kg/injection, schedule: Q04DX003 (ip), vehicle: distilled water + Tween-80) is 56 % of control and 66 % of control; the T/C (dose: 6.25 mg/kg/injection, schedule: Q04DX003 (ip), vehicle: saline with Tween-80) was 52 % of control; the T/C (dose: 12.5 mg/kg/injection, schedule: Q04DX003 (ip), vehicle: distilled water + Tween-80) was 55 % of control; the T/C (dose: 12.5 mg/kg/injection, schedule: Q04DX003 (ip), vehicle: saline with Tween-80) is 40 % of control. Moreover, the T/C (dose: 25.0 mg/kg/injection, schedule: Q04DX003 (ip), vehicle: distilled water + Tween-80) is 73 % of control.

Consider `O=[N+]([O-])/C=C\c1ccc2c(c1)OCO2`, for which, under setting [2], the T/C is 116 % of control.

On to `COC(OC(CO)C(O)S(=O)(=O)O)C(O)S(=O)(=O)O` (configuration not stated), for which the T/C under setting [6] was 54 % of control and the T/C under setting [7] was 80 % of control.

Take `COc1cccc2c1C(=O)c1c(O)c3c(c(O)c1C2=O)C[C@@](O)(C(C)=O)C[C@@H]3OC1CC(N)C(O)C(C)O1` (some centres not stated): the T/C was 71 % of control (dose: 1.0 mg/kg/injection, schedule: Q04DX003 (ip), vehicle: saline) and 113 % of control (dose: 2.0 mg/kg/injection, schedule: Q04DX003 (ip), vehicle: saline).

Take `O=c1n[n+]([O-])ccn1C1OC(CO)C(O)C1O` (configuration not stated): the T/C by setting is: under setting [8], 75 % of control; under setting [6], 71 % of control; under setting [7], 68 % of control; under setting [9], 82 % of control.

Take `CCCCNCCCNCCCNC(=O)c1csc(-c2csc(CCNC(=O)C(NC(=O)C(C)C(O)C(C)NC(=O)C(NC(=O)c3nc(C(CC(N)=O)NCC(N)C(N)=O)nc(N)c3C)C(OC3OC(CO)C(O)C(O)C3OC3OC(CO)C(O)C(OC(N)=O)C3O)c3cnc[nH]3)C(C)O)n2)n1` (configuration not stated): the T/C is, setting by setting: (dose: 7.5 mg/kg/injection, schedule: Q04DX003 (ip), vehicle: saline) 75 % of control; (dose: 15.0 mg/kg/injection, schedule: Q04DX003 (ip), vehicle: saline) 28 % of control; (dose: 15.0 mg/kg/injection, schedule: Q04DX004 (ip), vehicle: saline) 40 % of control; (dose: 30.0 mg/kg/injection, schedule: Q04DX003 (ip), vehicle: saline) 19 % of control and 33 % of control; (dose: 30.0 mg/kg/injection, schedule: Q04DX004 (ip), vehicle: saline) 38 % of control; (dose: 60.0 mg/kg/injection, schedule: Q04DX003 (ip), vehicle: saline) 20 % of control. In addition, the T/C runs as follows: (dose: 60.0 mg/kg/injection, schedule: Q04DX004 (ip), vehicle: saline) 18 % of control; (dose: 120.0 mg/kg/injection, schedule: Q04DX003 (ip), vehicle: saline) 2 % of control.

Take `Cc1c(N)nc(C(CC(N)=O)NCC(N)C(N)=O)nc1C(=O)NC(C(=O)NC(C)C(O)C(C)C(=O)NC(C(=O)NCCc1nc(-c2nc(C(=O)NCCCNC(C)c3ccccc3)cs2)cs1)C(C)O)C(OC1OC(CO)C(O)C(O)C1OC1OC(CO)C(O)C(OC(N)=O)C1O)c1cnc[nH]1` (configuration not stated): under “dose: 3.75 mg/kg/injection, schedule: Q04DX003 (ip), vehicle: saline”, the T/C is 70 % of control.

Take `CC(C)=CCNc1ncnc2c1ncn2C1OC(CO)C(O)C1O` (configuration not stated): the T/C under setting [8] is 106 % of control, the T/C under setting [6] is 77 % of control, the T/C under setting [7] was 65 % of control and the T/C under setting [9] is 64 % of control.

As for `O=C(O)CP(=O)(O)O`, the T/C (dose: 800.0 mg/kg/injection, schedule: Q04DX003 (ip), vehicle: saline) is 94 % of control and the T/C (dose: 1600.0 mg/kg/injection, schedule: Q04DX003 (ip), vehicle: saline) was 66 % of control.

For `Nc1cc2[nH]cnc2c(=O)[nH]1`, the T/C reads like this: under setting [4], 89 % of control; under setting [5], 83 % of control; under setting [10], 93 % of control.

With `NC(Cc1ccc(N(CCCl)CCCl)cc1)C(=O)O` (configuration not stated), the T/C (dose: 5.0 mg/kg/injection, schedule: Q04DX003 (ip), vehicle: Klucel (hydroxypropylcellulose) (HPC)) was 73 % of control.

For the molecule `O=C[C@@H](CO)O[C@H](C=O)n1cnc2c(=O)[nH]cnc21`, the T/C is, setting by setting: under setting [5], 57 % of control; under setting [10], 85 % of control; (dose: 400.0 mg/kg/injection, schedule: Q04DX003 (ip), vehicle: saline) 48 % of control.

As to `C=CC(=O)N1CN(C(=O)C=C)CN(C(=O)C=C)C1`, the T/C by setting is: (dose: 3.13 mg/kg/injection, schedule: Q01DX003 (ip), vehicle: saline with Tween-80) 62 % of control; (dose: 6.25 mg/kg/injection, schedule: Q01DX003 (ip), vehicle: saline with Tween-80) 93 % of control.

With `N=C(N)SCc1c2ccccc2c(CSC(=N)N)c2ccccc12`, the T/C (dose: 50.0 mg/kg/injection, schedule: Q04DX003 (ip), vehicle: suspension in saline) was 88 % of control.

In the case of `O=C1N(Cl)C(=O)C(c2ccc(Cl)cc2)(c2ccc(Cl)cc2)N1Cl`, the T/C is 103 % of control (dose: 100.0 mg/kg/injection, schedule: Q04DX003 (ip), vehicle: saline with Tween-80) and 108 % of control (dose: 200.0 mg/kg/injection, schedule: Q04DX003 (ip), vehicle: saline with Tween-80).

As to `N=C(N)Sc1ccccn1`, the T/C is 77 % of control under setting [4], 112 % of control under setting [5] and 65 % of control under setting [10].

Take `CN(C)N=Nc1ccccc1`: the T/C under setting [1] was 64 % of control and the T/C under setting [2] was 83 % of control.

In the case of `Cc1c(N)nc([C@H](CC(N)=O)NC[C@H](N)C(N)=O)nc1C(=O)N[C@H](C(=O)N[C@H](C)[C@@H](O)CC(=O)N[C@H](C(=O)NC(O[C@@H]1O[C@@H](C)[C@@H](N)[C@@H](O)[C@H]1O)C(O)c1nc(-c2nc(C(=O)NCCCCN)cs2)cs1)[C@@H](C)O)[C@@H](O[C@@H]1O[C@@H](CO)[C@@H](O)[C@H](O)[C@@H]1O[C@H]1O[C@H](CO)[C@@H](O)[C@H](OC(N)=O)[C@@H]1O)c1c[nH]cn1` (some centres not stated), the T/C is 47 % of control (dose: 4.0 mg/kg/injection, schedule: Q04DX003 (ip), vehicle: saline); 27 % of control (dose: 8.0 mg/kg/injection, schedule: Q04DX003 (ip), vehicle: saline); 7 % of control (dose: 16.0 mg/kg/injection, schedule: Q04DX003 (ip), vehicle: saline).
